Values of other authors in patent US10308663B2, “Inhibitors of PTP4A3 for the treatment of cancer” (University of Virginia Patent Foundation, priority 2015, dated 2019).

Tested on: YOP(H?)
Conditions: DiFMUP as a substrate; reported by Hoeger et al.; cited from earlier work

Nc1c[nH]c(=O)c2cc(-c3ccccc3)sc12 [Thienopyridone (5), 7-amino-2-phenylthieno[3,2-c]pyridin-4(5H)-one]
IC50: 61 µM
